In patent publication US10441593B2, “Treatment of pain associated with dislocation of endometrium” (PREGLEM S.A., priority 2010, dated 2019):

Tested on: patients with heavy menstrual bleeding and pain
Assay: Hepatobiliary Disorders and Liver Safety analysis (Example 3)
Format: in vivo, human
Procedure: A double-blinded, randomized, study evaluating the effect of long term oral administration of 5 mg or 10 mg ulipristal in patients with heavy menstrual bleeding and pain. A Hepatobiliary Disorders and Liver Safety analysis was carried out for all patients. This summary table illustrates the increased number of subjects from the 3 treatment groups who had increased levels of AST, ALT and total bilirubin during the study.

[1] = Ulipristal 5 mg (n = 97), Week 5
[2] = Ulipristal 5 mg (n = 97), Week 9
[3] = Ulipristal 5 mg (n = 97), Week 13
[4] = Ulipristal 5 mg (n = 97), Week 17
[5] = Ulipristal 10 mg (n = 103), Week 5
[6] = Ulipristal 10 mg (n = 103), Week 9
[7] = Ulipristal 10 mg (n = 103), Week 13
[8] = Ulipristal 10 mg (n = 103), Week 17

Compound: CC(=O)O[C@]1(C(C)=O)CC[C@H]2[C@@H]3CCC4=CC(=O)CCC4=C3[C@@H](c3ccc(N(C)C)cc3)C[C@@]21C [Ulipristal, 17α-acetoxy-11β-[4-N,N-dimethylamino-phenyl)-19-norpregna-4,9-diene-3,20-dione]
- treatment related changes in liver function tests (5 mg or 10 mg, long term oral administration): no signals of any treatment related changes in liver function tests
- ALT High not CS, number (%) of subjects [1]: 4 (4.1%)
- ALT Low not CS, number (%) of subjects [1]: 0
- AST High not CS, number (%) of subjects [1]: 6 (6.2%)
- AST Low not CS, number (%) of subjects [1]: 0
- Total bilirubin High CS, number (%) of subjects [1]: 0
- Total bilirubin High not CS, number (%) of subjects [1]: 2 (2.1%)
- Total bilirubin Low not CS, number (%) of subjects [1]: 0
- ALT High not CS, number (%) of subjects [2]: 0
- ALT Low not CS, number (%) of subjects [2]: 0
- AST High not CS, number (%) of subjects [2]: 3 (3.1%)
- AST Low not CS, number (%) of subjects [2]: 0
- Total bilirubin High not CS, number (%) of subjects [2]: 3 (3.1%)
- Total bilirubin Low not CS, number (%) of subjects [2]: 0
- ALT High not CS, number (%) of subjects [3]: 1 (1.0%)
- ALT Low not CS, number (%) of subjects [3]: 0
- AST High not CS, number (%) of subjects [3]: 2 (2.1%)
- AST Low not CS, number (%) of subjects [3]: 0
- Total bilirubin High not CS, number (%) of subjects [3]: 3 (3.1%)
- Total bilirubin Low not CS, number (%) of subjects [3]: 0
- ALT High CS, number (%) of subjects [4]: 0
- ALT High not CS, number (%) of subjects [4]: 2 (2.1%)
- ALT Low not CS, number (%) of subjects [4]: 0
- AST High not CS, number (%) of subjects [4]: 3 (3.1%)
- AST Low not CS, number (%) of subjects [4]: 0
- Total bilirubin High not CS, number (%) of subjects [4]: 2 (2.1%)
- Total bilirubin Low not CS, number (%) of subjects [4]: 0
- subjects with elevations of both AST and ALT above 2×ULN, but <3×ULN for consecutive samples (Ulipristal 5 mg group): 1 subject
- ALT High not CS, number (%) of subjects [5]: 6 (5.8%)
- ALT Low not CS, number (%) of subjects [5]: 0
- AST High not CS, number (%) of subjects [5]: 6 (5.8%)
- AST Low not CS, number (%) of subjects [5]: 0
- Total bilirubin High CS, number (%) of subjects [5]: 0
- Total bilirubin High not CS, number (%) of subjects [5]: 3 (2.9%)
- Total bilirubin Low not CS, number (%) of subjects [5]: 0
- ALT High not CS, number (%) of subjects [6]: 3 (2.9%)
- ALT Low not CS, number (%) of subjects [6]: 0
- AST High not CS, number (%) of subjects [6]: 3 (2.9%)
- AST Low not CS, number (%) of subjects [6]: 0
- Total bilirubin High not CS, number (%) of subjects [6]: 4 (3.9%)
- Total bilirubin Low not CS, number (%) of subjects [6]: 0
- ALT High not CS, number (%) of subjects [7]: 5 (4.9%)
- ALT Low not CS, number (%) of subjects [7]: 0
- AST High not CS, number (%) of subjects [7]: 4 (3.9%)
- AST Low not CS, number (%) of subjects [7]: 0
- Total bilirubin High not CS, number (%) of subjects [7]: 6 (5.8%)
- Total bilirubin Low not CS, number (%) of subjects [7]: 0
- ALT High CS, number (%) of subjects [8]: 0
- ALT High not CS, number (%) of subjects [8]: 4 (3.9%)
- ALT Low not CS, number (%) of subjects [8]: 0
- AST High not CS, number (%) of subjects [8]: 4 (3.9%)
- AST Low not CS, number (%) of subjects [8]: 0
- Total bilirubin High not CS, number (%) of subjects [8]: 2 (1.9%)
- Total bilirubin Low not CS, number (%) of subjects [8]: 0
- subjects with elevations of both AST and ALT above 2×ULN, but <3×ULN for consecutive samples (Ulipristal 10 mg group): 2 subjects
- liver toxicity based on Treatment Emergent Adverse Events (TEAEs) (clinical studies): no evidence of liver toxicity
